How the values were obtained:
AB2.2 mouse ESCs = experiment: TE contribution of mouse ESCs cultured in inhibitor combinations, injected to 8-cell host embryos; type: cell-based; conditions: AB2.2 mouse ESCs cultured at least 5 passages, chimera blastocysts co-stained for mCherry and Cdx2
From the text: Mouse EPSCs were initially derived and maintained in the standard EPSCM that contains six inhibitors (see materials and methods). To determine the effects of individual inhibitors in EPSCM and to explore the possibility that fewer inhibitors might be sufficient for the expanded potential in mouse stem cells, we cultured AB2.2 mouse ESCs in various combinations of inhibitors, initially based on the 2i/LIF medium, for at least 5 passages before injected to 8-cell host embryos. The chimera blastocysts were co-stained for mCherry and Cdx2 for TE contribution.
Injections were carried out with a Nikon Eclipse TE2000-U inverted microscope unit. ESC/EPSC microinjection was performed at room temperature on the inverted lid of a 100-mm falcon culture dish in an injection drop of 1.0 ml M2 medium (Sigma) The embryo was injected with 6-8 cells per 8-cell stage embryo for bulk injection or 1 cell per embryo for single cell injection. After 45-50 embryos have been injected, the injected embryos were washed three times in KSOM (Millipore) containing 3.0 mg/ml BSA, Embryos were then transferred into a well of four-well plate containing 1.0 ml KSOM. After overnight culture, 20-25 injected embryos were transferred into both uterus of a foster recipient.

EPSCs = experiment: EPSCM with other wnt inhibitor in place of XAV939; type: cell-based
human EPSCs = experiment: Culture and maintenance of human EPSCs; type: cell-based
From the text: We also investigated whether human ESCs could survive and proliferate in EPSCM. H1 hESCs were maintained in standard FGF2 containing media on feeders. H1 cells survived culture in EPSCM and morphologically distinct 3-dimensional colonies emerged within one passage. Continued culture allowed establishment of a stable line which we called H1-EPSCs.
Human iPSC lines were also produced from human neural stem cells, and from human fetal or adult skin fibroblast cells using the six-factor reprogramming technology described in Wang et al (2011) and cultured for 2-3 weeks on feeders. The resulting iPSCs were switched to EPSCM and transgene free stable lines were established (EPSC-iPSCs). (FIG. 6). Stable human EPSC-iPSC lines have been passaged for over 30 passages in EPSCM.
We made several reporter EPSC lines that have a GFP or mCherry expression cassette at loci including Oct4, Sox2 and ROSA26. […] Importantly, these reporter cells provide a convenient way to assess the culture condition. […] However, we have also observed cases where EPSCM supplemented with fewer than six inhibitors has been able to obtain EPSCs. For example, where the EPSCM is supplemented with a chemically defined basal medium, such as Albumax II, it has been observed that fewer than six inhibitors are required obtain EPSCs. […]

Jak/Stat pathway = experiment: LIF response in ESCs and EPSCs; type: cell-based, mouse; conditions: adding LIF to EPSCs
Method: For LIF stimulation, 1.0×10^6 cells were seeded in […] for 24 hours. Cells were washed with PBS and cultured in DMEM/F12/KSR for 4 hours, then LIF was supplemented at concentration of 0.0, 0.5, 1.0, 5.0 and 10.0 ng/ml for 30 minutes. Whole cell protein was extracted for Western blot using pSTAT3 (Cell signalling) and STAT3 (BD Biosciences) antibodies. α-Tubulin (Abcam) was used as loading control.
To analyse the expression of down-stream target genes of Jak-Stat3 and MAPK signalling at transcription level after LIF stimulation, both E14Tg2a ESCs and EPSCs were deprived of LIF for 4 hours as above, LIF 1.0 ng/ml was supplemented for 1 hour, total RNA was extracted and reverse transcribed to make cDNA. qPCR was performed using Taqman Gene Expression Assays (ABI)

Molecule: CN1CCN(C2CCC(n3cc(-c4ccc(Oc5ccccc5)cc4)c4c(N)ncnc43)CC2)CC1 (centres unmarked) [A419259]
- TE contribution on adding inhibitor to the 2i/LIF (2i) medium (AB2.2 mouse ESCs): substantially increased TE contribution

Molecule: Cc1ccc2nc(NC(=O)CSc3nc4c(c(=O)n3-c3ccccc3)SCC4)sc2c1 [IWP-2]
- use as the wnt inhibitor in EPSCM in place of XAV939 (EPSCs): successfully used

Molecule: CCOc1nc(NC(=O)Cc2cc(OC)ccc2OC)cc(N)c1C#N [JNKi]
- effect of inhibitor absence on human EPSC culture (human EPSCs): absence caused gradual deterioration

Molecule: Oc1nc(-c2ccc(C(F)(F)F)cc2)nc2c1CSCC2 [XAV939]
- TE contribution on adding inhibitor to the 2i/LIF (2i) medium (AB2.2 mouse ESCs): substantially increased TE contribution

Molecule: Cc1cc(/C=C2\SC(=O)N(c3ccccc3)C2=O)c(C)n1-c1cccnc1 [iCRT 14]
- use as the wnt inhibitor in EPSCM in place of XAV939 (EPSCs): successfully used

Molecule: C[S+]([O-])c1ccc(-c2nc(-c3ccncc3)c(-c3ccc(F)cc3)[nH]2)cc1 (centres unmarked) [p38i]
- effect of inhibitor absence on human EPSC culture (human EPSCs): absence caused gradual deterioration

Molecule: LIF: leukemia inhibitory factor, a cytokine
- expression of Jak/Stat downstream genes (Jak/Stat pathway): upregulated expression of Jak/Stat downstream genes
- phosphorylation of Stat3 (Jak/Stat pathway): increased phosphorylation of Stat3
